# Data reported in the SangsterLogP compilation.
# Assay: method code SF-AS, from DOI: 10.1002/jps.2600830428, PMID: 8046619
# Details: pH 7.4
row,SMILES,logD
1,O=c1nc(/N=C/N2CCOCC2)ccn1[C@H]1C[C@H](O)[C@@H](CO)O1,-1.54
2,O=c1nc(N=CN2CCCC2)ccn1[C@@H]1O[C@H](CO)[C@@H](O)[C@@H]1O,-1.15
3,O=c1nc(N=CN2CCOCC2)ccn1[C@@H]1O[C@H](CO)[C@@H](O)[C@@H]1O,-1.66
